Molecular target: Sortase A (SrtA) (Staphylococcus aureus, UniProt Q2FV99)
Assay: intrinsic fluorescence quenching with purified recombinant SrtA (KA); also FRET inhibition of purified SrtA, IC50 =[…], reversible
Assay type: binding

Sequence of Sortase A (SrtA) (Q2FV99 whole entry): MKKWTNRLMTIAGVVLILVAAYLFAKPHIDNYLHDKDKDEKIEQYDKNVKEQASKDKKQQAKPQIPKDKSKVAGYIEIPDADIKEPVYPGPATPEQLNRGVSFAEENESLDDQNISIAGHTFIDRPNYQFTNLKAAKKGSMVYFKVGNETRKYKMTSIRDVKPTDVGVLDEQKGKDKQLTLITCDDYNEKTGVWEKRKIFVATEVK

SMILES: O=c1cc(-c2ccc(O)cc2)oc2cc(O)c([C@@H]3O[C@H](CO)[C@@H](O)[C@H](O)[C@H]3O)c(O)c12 [isovitexin]
- Kd: 14 µM

Source: PMC9668100, “Isovitexin Protects Mice from Methicillin-Resistant Staphylococcus aureus-Induced Pneumonia by Targeting Sortase A” (Journal of Microbiology and Biotechnology, 2022)
